Where two headings read alike, the source gives them in different places.
Key:
Test in all cases: microbe, parasite or virus in culture
Type in all cases: cell-based, Hepatitis C virus (HCV)
HCV replicon 1B = details: HCV replicon 1B; Replicon Assay B
Procedure: In an alternate assay (“Replicon Assay B”), 1000 cells were seeded per well in a 384-well collagen coated black plate from Greiner bio-one (Cat #781946) in 5% FBS. Inhibitors of this invention were added at 24 h post-seeding, and the plates were incubated for 3 days. Cells were subsequently lysed with Qiagen lysis buffer (Cat #1062731) to extract the RNA. HCV replicon RNA level was measured by real-time PCR using the RNA-to-CT kit from Applied Biosystem (Cat #4392656) and genotype-specific primers and probes. The amplicon was located within NS5B. […] (SEQ. ID NO. 2); the probe sequence was FAM-labeled […] (SEQ. ID NO. 3).
The real-time RT-PCR reactions were run on ABI PRISM 7900HT or Viia7 Sequence Detection System using the following program: 48° C. for 30 minutes, 95° C. for 10 minutes, 40 cycles of 95° C. for 15 sec, 60° C. for 1 minutes.
Data for replicons 1A, 1AY93H and 2B were obtained using Replicon Assay A and data for replicons 1AQ30D and 1B were obtained using Replicon Assay B.

HCV replicon 1A = details: Replicon Assay A
How it was run: (§1)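 Replicon cells incubated with compound for 3 days in medium with 5% FBS and 0.5% DMSO final. Replicon RNA measured in lysates by multiplex real-time RT-PCR (Neo set) against cyclophilin control, quantified from standard curves of Ct versus log ng replicon total RNA.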

HCV replicon 1AY93H = details: Replicon Assay A
How it was run: as §1

HCV replicon 2B = details: Replicon Assay A
How it was run: as §1

[1] = read-out: 1A Y93H IC50, HCV replicon 1A Y93H
[2] = read-out: 2B IC50, HCV replicon 2B
[3] = read-out: 1A Y93H IC50, replicon 1AY93H
[4] = Hepatitis C virus, read-out: 1A Y93H IC50, HCV replicon 1A Y93H
[5] = Hepatitis C virus, HCV replicon 1A
[6] = Hepatitis C virus, read-out: 2B IC50, HCV replicon 2B

Question: With `CCc1c2n(c3ccc(-c4cnc(C5CCCN5C(=O)C(NC(=O)OC)C(C)C)[nH]4)cc13)C(c1ccc(C3CC3)s1)Oc1cc(-c3cnc(C4CCCN4C(=O)C(NC(=O)OC)C(C)C)[nH]3)cc(F)c1-2` (single isomer, unassigned) [Compound 838] as the compound, how does the IC50 (HCV replicon 1B) read?
Answer: 0.0013 nM

Question: And the IC50 (HCV replicon 1A; HCV replicon 1A)?
Answer: 0.0055 nM

Question: What does the source list for `COC(=O)N[C@H](C(=O)N1CCC[C@H]1c1nc(-c2cc(F)c3c(c2)OC(c2ccc(C4CC4)s2)n2c-3cc3cc(-c4c[nH]c([C@@H]5C[C@H]6C[C@H]6N5C(=O)[C@@H](NC(=O)OC)C(C)C)n4)ccc32)c[nH]1)C(C)C` (single isomer, unassigned) [Compound 720]?
Answer: IC50 (HCV replicon 1AY93H; [1]): 0.52 nM; IC50 (HCV replicon 1A; HCV replicon 1A): 0.0019 nM; IC50 (HCV replicon 2B; [2]): 3.99 nM

Question: With `COC(=O)N[C@H](C(=O)N1CCC[C@H]1c1ncc(-c2cc(F)c3c(c2)OC(c2cc(C)sc2C)n2c-3cc3cc(-c4cnc([C@@H]5CCCN5C(=O)[C@@H](NC(=O)OC)C(C)C)[nH]4)ccc32)[nH]1)C(C)C` (single isomer, unassigned) [Compound 320] as the compound, how does the IC50 (HCV replicon 1AY93H; [3]) read?
Answer: 5.5 nM

Question: And the IC50 (HCV replicon 1A; replicon 1A)?
Answer: 0.0011 nM

Question: What about the IC50 (HCV replicon 2B; read-out: 2B IC50, replicon 2B) of the same compound?
Answer: 5.1 nM

Question: `COC(=O)N[C@H](C(=O)N1CCC[C@H]1c1ncc(-c2ccc3c(c2)cc2n3C(c3ccc(Cl)s3)Oc3cc(-c4cnc([C@@H]5CCCN5C(=O)[C@H](NC(=O)OC)C(C)C)[nH]4)cc(F)c3-2)[nH]1)C(C)C` (mixture of isomers) [Compound 506] was tested. Which IC50 (HCV replicon 1AY93H; [4]) did it give?
Answer: 0.397 nM

Question: And the IC50 (HCV replicon 1A; [5])?
Answer: 0.0171 nM

Question: What about the IC50 (HCV replicon 2B; [6]) of the same compound?
Answer: 0.471 nM

Question: What does the source list for `COC(=O)N[C@H](C(=O)N1CCC[C@H]1c1ncc(-c2ccc3c(c2)OC(c2ccc(C4CC4)s2)n2c-3cc3cc(-c4cnc([C@@H]5CCCN5C(=O)[C@@H](NC(=O)OC)C(C)C)[nH]4)ccc32)[nH]1)C(C)C` (single isomer, unassigned) [Compound 703]?
Answer: IC50 (HCV replicon 1AY93H; [4]): 0.26 nM; IC50 (HCV replicon 1A; HCV replicon 1A): 0.03 nM; IC50 (HCV replicon 2B; [2]): 0.12 nM

Question: Which IC50 (HCV replicon 1AY93H; [3]) does the source give for `COC(=O)NC(C(=O)N1CCC[C@H]1c1ncc(-c2ccc3c(c2)cc2n3C(c3ccc(C4CC4)s3)Oc3cc(-c4cnc([C@@H]5CCCN5C(=O)[C@@H](NC(=O)OC)C(C)C)[nH]4)cc(F)c3-2)[nH]1)C1C[C@@H](C)O[C@H](C)C1` (single isomer, unassigned) [Compound 191] here?
Answer: 0.32 nM

Question: What about the IC50 (HCV replicon 1A; replicon 1A) of the same compound?
Answer: 0.0014 nM

Question: What about the IC50 (HCV replicon 2B; read-out: 2B IC50, replicon 2B) of the same compound?
Answer: 0.89 nM

Question: How did the IC50 (HCV replicon 1AY93H; [3]) turn out when `COC(=O)N[C@H](C(=O)N1CCC[C@H]1c1ncc(-c2cc(F)c3c(c2)OC(c2ccc(CCF)s2)n2c-3cc3cc(-c4cnc([C@@H]5CCCN5C(=O)[C@@H](NC(=O)OC)C(C)C)[nH]4)ccc32)[nH]1)C(C)C` (single isomer, unassigned) [Compound 43] was run?
Answer: 0.12 nM

Question: And the IC50 (HCV replicon 1A; Hepatitis C virus, replicon 1A)?
Answer: 0.0019 nM

Question: What about the IC50 (HCV replicon 2B; read-out: 2B IC50, replicon 2B) of the same compound?
Answer: 0.54 nM

Question: With `CCN(CC)[C@@H](C(=O)N1C[C@H](F)C[C@H]1c1nc(-c2ccc3c(c2)OC(c2ccc(Cl)s2)n2c-3cc3cc(-c4c[nH]c([C@@H]5C[C@@H](F)CN5C(=O)[C@@H](c5ccccc5)N(CC)CC)n4)ccc32)c[nH]1)c1ccccc1` (mixture of isomers) [Compound 732] as the compound, how does the IC50 (HCV replicon 1AY93H; [4]) read?
Answer: 0.4 nM

Question: And the IC50 (HCV replicon 1A; [5])?
Answer: 0.16 nM

Question: And the IC50 (HCV replicon 2B; [6])?
Answer: 12.5 nM

Question: `CC[C@@H]1CC(C(NC(=O)OC)C(=O)N2CCC[C@H]2c2ncc(-c3ccc4c(c3)cc3n4C(c4ccc(C5CC5)s4)Oc4cc(-c5cnc([C@@H]6CCCN6C(=O)[C@@H](NC(=O)OC)C(C)C)[nH]5)cc(F)c4-3)[nH]2)C[C@H](CC)O1` (single isomer, unassigned) [Compound 290] was tested. Which IC50 (HCV replicon 1AY93H; [3]) did it give?
Answer: 0.19 nM

Question: What about the IC50 (HCV replicon 1A; replicon 1A) of the same compound?
Answer: 0.0011 nM

Question: What about the IC50 (HCV replicon 2B; read-out: 2B IC50, replicon 2B) of the same compound?
Answer: 0.34 nM

Question: What does the source list for `CCc1ccc(C2Oc3cc(-c4cnc([C@@H]5CCCN5C(=O)C(NC(=O)OC)C5CCOC(C)(C)C5)[nH]4)cc(F)c3-c3cc4cc(-c5cnc([C@@H]6CCCN6C(=O)[C@@H](NC(=O)OC)C(C)C)[nH]5)ccc4n32)s1` (single isomer, unassigned) [Compound 159]?
Answer: IC50 (HCV replicon 1AY93H; [3]): 0.77 nM; IC50 (HCV replicon 1A; replicon 1A): 0.0025 nM; IC50 (HCV replicon 2B; read-out: 2B IC50, replicon 2B): 0.45 nM

Question: What does the source list for `COC(=O)N[C@H](C(=O)N1CCC[C@H]1c1ncc(-c2ccc3c(c2)OC(c2ccc(C4CC4)s2)n2c-3c(F)c3cc(-c4cnc([C@@H]5C[C@H]6C[C@H]6N5C(=O)[C@@H](NC(=O)OC)C(C)C)[nH]4)ccc32)[nH]1)C(C)C` (single isomer, unassigned) [Compound 612]?
Answer: IC50 (HCV replicon 1AY93H; [1]): 0.469 nM; IC50 (HCV replicon 1A; HCV replicon 1A): 0.0016 nM; IC50 (HCV replicon 2B; [2]): 2.21 nM

Reference: patent US20160257697A1, “THIOPHENE-SUBSTITUTED TETRACYCLIC COMPOUNDS AND METHODS OFUSE THEREOF FOR THE TREATMENT OF VIRAL DISEASES” (priority 2013, published 2016)
